The text below walks through data of ChEMBL document CHEMBL1201862, “PubChem BioAssay data set” (2004).

The structures appear in SMILES notation. Activity calls are given as the source filed them.

Assay [1] has as its target Beta-2 adrenergic receptor (Homo sapiens, UniProt P07550). The experiment in a line: ADRB2 activation measured by internalization – cell-based, FAP fluorogen, flow cytometry, cherry pick 1, dose response (AID 588763). Type of assay: functional.
The next assay has as its system Jurkat. Briefly: SAR Analysis of small molecule inhibitors of T-cell specific antigen receptor-induced NF-kB activation in a Jurkat cell line using a luminescence assay - Set 2. [Related pubchem assays (depositor defined):AID435003, AID435012, AID465]. In kind it is functional, cell-based. As to conditions: Homo sapiens.
The test system of assay [2] is HEK293. The experiment in a line: HEK293T cell viability loss, resazurin readout – resazurin fluorescence, cytotoxicity control for NF-kB activator project, SAR follow-up (AID 493251). In kind it is functional, cell-based. Conditions: Homo sapiens.
Assay [3] concerns HEK293. Briefly: SAR Analysis of small molecule inhibitors of T-cell specific antigen receptor-induced NF-kB activation in a HEK-293T cell line using a luminescence assay - Set 2. [Related pubchem assays (depositor defined):AID435003, AID435012, AID489026]. Type of assay: functional, cell-based. As to conditions: Homo sapiens.
Assay [4] concerns the target T1, Alkaline phosphatase, tissue-nonspecific isozyme (Homo sapiens, UniProt P05186).
T1 sequence (P05186 whole entry): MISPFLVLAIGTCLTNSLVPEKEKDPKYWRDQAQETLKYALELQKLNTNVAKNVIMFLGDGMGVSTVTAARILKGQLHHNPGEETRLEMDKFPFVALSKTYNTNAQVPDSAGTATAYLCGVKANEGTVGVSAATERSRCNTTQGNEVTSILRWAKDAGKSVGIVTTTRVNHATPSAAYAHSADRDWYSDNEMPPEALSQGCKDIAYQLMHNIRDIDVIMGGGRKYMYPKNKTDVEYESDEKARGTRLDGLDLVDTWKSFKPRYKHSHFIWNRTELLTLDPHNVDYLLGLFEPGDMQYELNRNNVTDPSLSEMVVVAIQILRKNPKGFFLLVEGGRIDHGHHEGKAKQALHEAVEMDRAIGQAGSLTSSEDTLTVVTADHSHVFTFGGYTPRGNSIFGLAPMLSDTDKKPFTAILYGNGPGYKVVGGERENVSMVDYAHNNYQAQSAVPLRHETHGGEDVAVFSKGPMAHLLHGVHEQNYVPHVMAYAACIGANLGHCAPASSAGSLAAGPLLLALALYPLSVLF
Briefly: potency against alkaline phosphatase TNAP – biochemical, luminescent, dose response, SAR follow-up (AID 1056).

Assay [5] concerns the target Dual specificity protein kinase CLK1 (Homo sapiens, UniProt P49759). The experiment in a line: inhibition of human CLK1 activity – biochemical, cherry-picked samples, selectivity assay for Dyrk1A inhibitor project, dose response (AID 588811).
The target in assay [6] is Glyceraldehyde-3-phosphate dehydrogenase (Homo sapiens, UniProt P04406).
Glyceraldehyde-3-phosphate dehydrogenase, sequence (P04406 whole entry): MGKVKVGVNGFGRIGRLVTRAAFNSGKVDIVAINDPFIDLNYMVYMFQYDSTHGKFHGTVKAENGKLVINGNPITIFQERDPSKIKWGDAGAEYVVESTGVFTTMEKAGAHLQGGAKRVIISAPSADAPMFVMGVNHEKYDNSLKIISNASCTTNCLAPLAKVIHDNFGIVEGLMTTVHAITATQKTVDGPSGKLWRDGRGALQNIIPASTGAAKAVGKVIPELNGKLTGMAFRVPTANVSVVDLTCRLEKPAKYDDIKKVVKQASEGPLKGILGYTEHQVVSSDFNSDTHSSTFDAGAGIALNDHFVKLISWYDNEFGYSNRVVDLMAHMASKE
Assay [7] has as its target Dual specificity tyrosine-phosphorylation-regulated kinase 1A (Rattus norvegicus, UniProt Q63470). Type of assay: biochemical, Homo sapiens.
The test system of assay [8] is HEK293. Briefly: EBV LMP1 TES2 canonical NF-kB signalling blockers – cell-based, HEK293, luciferase, cherry-pick, dose response (AID 588343). Type of assay: functional. Conditions: Homo sapiens.
Assay [9] in a line: Luminescence Cell-Based Dose Response HTS to Identify Inhibitors of 5'UTR Stem-Loop Driven Prion Protein mRNA Translation in H4 Neuroglioblastoma Cells. [Related pubchem assays: 1827 (Project Summary), 1813 (Primary HTS)]. Type of assay: functional.
Assay [10] deals with T2, Microphthalmia-associated transcription factor (Homo sapiens, UniProt O75030).
T2 sequence (O75030 whole entry): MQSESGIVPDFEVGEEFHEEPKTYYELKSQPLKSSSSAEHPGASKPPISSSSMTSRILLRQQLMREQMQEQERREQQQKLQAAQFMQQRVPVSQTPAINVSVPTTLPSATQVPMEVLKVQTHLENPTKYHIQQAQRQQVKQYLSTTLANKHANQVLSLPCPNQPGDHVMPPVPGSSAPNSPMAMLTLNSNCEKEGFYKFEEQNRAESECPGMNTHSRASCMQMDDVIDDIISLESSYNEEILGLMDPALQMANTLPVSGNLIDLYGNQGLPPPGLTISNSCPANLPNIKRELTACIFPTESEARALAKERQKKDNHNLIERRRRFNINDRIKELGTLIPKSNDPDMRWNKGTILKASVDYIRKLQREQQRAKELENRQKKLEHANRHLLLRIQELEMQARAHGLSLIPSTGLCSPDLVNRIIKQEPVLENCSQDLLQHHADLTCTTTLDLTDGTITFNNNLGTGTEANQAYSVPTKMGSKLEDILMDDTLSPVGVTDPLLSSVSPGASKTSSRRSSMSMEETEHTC
The experiment in a line: reducers of TRPM1 reporter luminescence, concentration series – cell-based, SK-MEL-5, cherry-picked, set 3, MITF inhibitor project, dose response (AID 493073).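 Also: SK-MEL-5 melanoma cells with luciferase driven by the MITF target TRPM1 promoter.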 Type of assay: functional.

Assay [11] in a line: Trypanosoma cruzi growth suppression in host cells – NIH3T3 host cells, beta-gal luminescence, confirmation (AID 2044).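 Also: intracellular parasites grown in NIH/3T3 mouse fibroblasts as host cells; luminescent beta-galactosidase reporter signal from transgenic T. cruzi replicating inside host cells; inhibitors lower the luminescence signal.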 In kind it is functional, cell-based.
Assay [12] can be described thus: luciferase reporter signal suppression in cells – H4 neuroglioma cells, luminescence, dose response (AID 1990). Type of assay: functional, cell-based.
Assay [13] can be described thus: alpha-synuclein stem-loop luciferase translation blockers – H4 neuroglioma cells, luminescence, confirmation (AID 1988). Type of assay: functional, cell-based.
The nature of assay [14]: NIH3T3 cell viability loss – ATP luminescence, mouse fibroblasts, counter-screen, dose response (AID 2010).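 Also: cells exposed to compound for about 90 hours before reading.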 Type of assay: functional, cell-based. On the technique in general: The purpose of a counterscreen is to sort out artefacts and off-target activity.
Assay [15] addresses T3, Endoribonuclease toxin MazF (Escherichia coli K-12, UniProt P0AE70).
T3 sequence (P0AE70 whole entry): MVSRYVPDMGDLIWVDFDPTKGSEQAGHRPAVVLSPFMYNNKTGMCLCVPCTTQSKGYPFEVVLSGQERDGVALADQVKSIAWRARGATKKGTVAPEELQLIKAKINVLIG
Briefly: substrate-only fluorescence increase artefacts – biochemical, single-stranded RNase substrate, counter-screen for MazEF activator project, dose response (AID 588502). Type of assay: functional.

Assay [16] has as its target T3, Endoribonuclease toxin MazF. The experiment in a line: activation of MazEF endoribonuclease cleavage – biochemical, fluorescence, single-stranded RNA substrate, uHTS hits, dose response (AID 588481). In kind it is functional.

Beta-2 adrenergic receptor, sequence (P07550 whole entry): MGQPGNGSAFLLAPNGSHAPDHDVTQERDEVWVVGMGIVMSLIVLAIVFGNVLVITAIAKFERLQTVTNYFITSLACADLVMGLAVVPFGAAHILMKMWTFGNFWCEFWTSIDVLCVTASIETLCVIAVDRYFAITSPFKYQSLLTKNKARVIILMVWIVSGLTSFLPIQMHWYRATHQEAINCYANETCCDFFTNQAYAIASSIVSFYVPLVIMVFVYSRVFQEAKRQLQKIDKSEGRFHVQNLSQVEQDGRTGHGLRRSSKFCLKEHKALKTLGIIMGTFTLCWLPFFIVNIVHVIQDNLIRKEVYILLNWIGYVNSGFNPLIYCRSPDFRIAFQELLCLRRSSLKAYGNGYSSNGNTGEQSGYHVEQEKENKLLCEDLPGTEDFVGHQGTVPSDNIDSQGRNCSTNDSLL
Dual specificity protein kinase CLK1, sequence (P49759 whole entry): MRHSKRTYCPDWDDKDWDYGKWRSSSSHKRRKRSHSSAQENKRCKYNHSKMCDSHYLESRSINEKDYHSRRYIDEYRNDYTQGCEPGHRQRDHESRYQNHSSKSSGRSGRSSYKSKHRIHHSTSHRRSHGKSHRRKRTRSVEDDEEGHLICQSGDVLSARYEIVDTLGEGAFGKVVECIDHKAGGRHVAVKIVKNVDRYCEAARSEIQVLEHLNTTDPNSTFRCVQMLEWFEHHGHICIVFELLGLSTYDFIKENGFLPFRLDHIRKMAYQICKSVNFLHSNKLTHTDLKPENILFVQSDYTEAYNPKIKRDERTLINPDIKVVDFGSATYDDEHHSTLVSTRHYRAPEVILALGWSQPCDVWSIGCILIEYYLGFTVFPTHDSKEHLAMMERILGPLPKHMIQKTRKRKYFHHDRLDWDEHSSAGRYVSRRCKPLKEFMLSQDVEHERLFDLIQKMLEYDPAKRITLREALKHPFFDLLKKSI

Consider `Nc1cc(N)nc(SCc2cc([N+](=O)[O-])cc3c2OCOC3)n1`, for which, in assay [1], the EC50 is 1.18 µM (active).
On to `CC(C)CC(=O)NC(c1ccc(C(C)C)cc1)c1ccc2cccnc2c1O` (stereo unspecified), for which the IC50 was 2.49 µM (active) in the assay on Jurkat, 18 µM (active) with HEK293 [2] and 7.36 µM (active) in the assay on HEK293 [3].
Consider `COc1ccc2c(c1)CCc1c-2n[nH]c1C(=O)O`, for which the IC50 in assay [4] was 3.71 µM (active); in [6], > 10 µM (inconclusive). Moreover, the AC50 in assay [5] is 16.9 µM (active); in [7], 7.28 µM (active).
For `COc1ccc2cc(-c3cc(C(=O)OCC(=O)Nc4c(C)n(C)n(-c5ccccc5)c4=O)c4ccccc4n3)ccc2c1`, the concentration at half-maximal activity (AC50) with HEK293 [8] is 1.07 µM (active).
Turning to `CCN1CCN(c2ccc(NC(=O)c3ccc([N+](=O)[O-])o3)cc2Cl)CC1`, the values for the IC50 with Jurkat, in the assay on HEK293 [2] and in the assay on HEK293 [3] were 15.8 µM (active), 49.2 µM (inactive) and 16.5 µM (active), respectively. For the same molecule, the concentration for a half-maximal effect (EC50) was > 120 µM (not active) in assay [9]; > 30 µM (not active) in assay [11]; > 120 µM (not active) in assay [12]; 6.22 µM (active) in [1]; 8.46 µM (active) in assay [13]; 4.34 µM (active) in [14]. For the same molecule, in [10], the AC50 is 9.54 µM (active).
With `CN(C)c1ccc(/C=N/N(CCC#N)C2=NS(=O)(=O)c3ccccc32)cc1`, the EC50 in [15] was 42.5 µM (inactive); in [16], > 99 µM (inactive).

A word on the EC50: it is the concentration needed to bring the measured effect to its halfway point. As a reminder, the IC50 is the point on the concentration scale where inhibition reaches its midpoint. A word on the AC50: it is the concentration at which the activity in the assay is half-maximal.
